For 6 compounds, IC50 results are on record in BindingDB's records for doi:10.1080/14756360400015231 (Quaid-I-Azam University, 2005).

Molecules are shown by their SMILES.

The assay deals with Carboxylic ester hydrolase (Equus caballus, UniProt Q9N1N9). Kind of assay: Enzyme Inhibition Assay. As to conditions: pH 8; 25 °C. The method, then: In vitro cholinesterase inhibition assay using electric-eel acetylcholinesterase, horse-serum butyrylcholinesterse. The IC50 values were calculated using the […] enzyme kinetics program (Perrella Scientific Inc., Amherst, USA).
Chain of Carboxylic ester hydrolase (Q9N1N9 whole entry): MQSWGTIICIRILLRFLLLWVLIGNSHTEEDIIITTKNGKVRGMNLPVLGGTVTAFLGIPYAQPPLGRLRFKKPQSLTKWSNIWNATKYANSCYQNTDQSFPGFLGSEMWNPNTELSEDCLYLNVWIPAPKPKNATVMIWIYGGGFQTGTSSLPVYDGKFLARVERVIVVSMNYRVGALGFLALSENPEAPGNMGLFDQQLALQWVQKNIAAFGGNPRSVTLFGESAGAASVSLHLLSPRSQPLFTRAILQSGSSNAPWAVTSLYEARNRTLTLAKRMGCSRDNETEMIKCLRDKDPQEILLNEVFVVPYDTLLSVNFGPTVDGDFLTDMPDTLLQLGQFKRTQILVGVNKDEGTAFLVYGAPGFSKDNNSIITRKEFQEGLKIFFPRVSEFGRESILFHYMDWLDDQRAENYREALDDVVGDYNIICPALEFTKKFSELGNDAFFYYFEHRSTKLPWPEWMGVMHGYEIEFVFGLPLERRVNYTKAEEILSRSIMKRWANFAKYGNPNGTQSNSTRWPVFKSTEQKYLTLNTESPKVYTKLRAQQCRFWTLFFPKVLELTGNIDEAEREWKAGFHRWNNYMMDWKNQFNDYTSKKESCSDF

Consider `O=C(/C=C/c1ccc(O)cc1)c1ccccc1` [Chalcone 2], for which the midpoint of inhibition, the IC50, lay at 40 µM.

Turning to `O=C(/C=C/c1ccccc1O)c1ccccc1` [Chalcone, 1], the IC50 (commonly the concentration that gives 50% inhibition) was determined as 16 µM. As for `O=C(/C=C/c1cccc(O)c1)c1ccccc1` [Chalcone, 2], the IC50 turned out to be 46.2 µM. Turning to `COc1ccc(/C=C/C(=O)c2ccccc2)cc1` [Chalcone, 4], the IC50 turned out to be 39 µM. For the compound `COc1ccc(/C=C/C(=O)c2ccccc2)cc1OC` [Chalcone, 5], the IC50 was 23.1 µM. On to `O=C(/C=C/c1ccccc1)c1ccccc1` [Chalcone, 13], for which the IC50 came out at 109 µM.
